From ChEMBL document CHEMBL4177730, “Rational modification of semaxanib and sunitinib for developing a tumor growth inhibitor targeting ATP binding site of tyrosine kinase” (2018)
Active and inactive are the calls of the source.

Tests used:
Assay type in all cases: functional, cell-based
OVCAR-5 = assay: Growth inhibition of human OVCAR5 cells at 10 uM after 48 hrs by sulforhodamine B assay
T47D = assay: Growth inhibition of human T47D cells at 10 uM after 48 hrs by sulforhodamine B assay
MDA-MB-468 = assay: Growth inhibition of human MDA-MB-468 cells at 10 uM after 48 hrs by sulforhodamine B assay
HCT-15 = assay: Growth inhibition of human HCT15 cells at 10 uM after 48 hrs by sulforhodamine B assay
RPMI-8226 = assay: Growth inhibition of human RPMI8226 cells at 10 uM after 48 hrs by sulforhodamine B assay
SR = assay: Growth inhibition of human SR cells at 10 uM after 48 hrs by sulforhodamine B assay
SW-620 = assay: Growth inhibition of human SW620 cells at 10 uM after 48 hrs by sulforhodamine B assay
M14 = assay: Growth inhibition of human M14 cells at 10 uM after 48 hrs by sulforhodamine B assay
IGROV-1 = assay: Growth inhibition of human IGROV1 cells at 10 uM after 48 hrs by sulforhodamine B assay
CAKI-1 = assay: Growth inhibition of human CAKI-1 cells at 10 uM after 48 hrs by sulforhodamine B assay
MDA-MB-435 = assay: Growth inhibition of human MDA-MB-435 cells at 10 uM after 48 hrs by sulforhodamine B assay
PC-3 = assay: Growth inhibition of human PC3 cells at 10 uM after 48 hrs by sulforhodamine B assay
A498 = assay: Growth inhibition of human A498 cells at 10 uM after 48 hrs by sulforhodamine B assay
SF-268 = assay: Growth inhibition of human SF268 cells at 10 uM after 48 hrs by sulforhodamine B assay
UACC-62 = assay: Growth inhibition of human UACC62 cells at 10 uM after 48 hrs by sulforhodamine B assay
NCI-H226 = assay: Growth inhibition of human NCI-H226 cells at 10 uM after 48 hrs by sulforhodamine B assay
HCC 2998 = assay: Growth inhibition of human HCC2998 cells at 10 uM after 48 hrs by sulforhodamine B assay
SNB-19 = assay: Growth inhibition of human SNB19 cells at 10 uM after 48 hrs by sulforhodamine B assay
HOP-62 = assay: Growth inhibition of human HOP62 cells at 10 uM after 48 hrs by sulforhodamine B assay
MOLT-4 = assay: Growth inhibition of human MOLT4 cells at 10 uM after 48 hrs by sulforhodamine B assay
SF-539 = assay: Growth inhibition of human SF539 cells at 10 uM after 48 hrs by sulforhodamine B assay
BT-549 = assay: Growth inhibition of human BT549 cells at 10 uM after 48 hrs by sulforhodamine B assay
SK-OV-3 = assay: Growth inhibition of human SKOV3 cells at 10 uM after 48 hrs by sulforhodamine B assay
SNB-75 = assay: Growth inhibition of human SNB75 cells at 10 uM after 48 hrs by sulforhodamine B assay
SN12C = assay: Growth inhibition of human SN12C cells at 10 uM after 48 hrs by sulforhodamine B assay
MDA-MB-231 = assay: Growth inhibition of human MDA-MB-231 cells at 10 uM after 48 hrs by sulforhodamine B assay
OVCAR-8 = assay: Growth inhibition of human OVCAR8 cells at 10 uM after 48 hrs by sulforhodamine B assay
CCRF-CEM = assay: Growth inhibition of human CCRF-CEM cells at 10 uM after 48 hrs by sulforhodamine B assay
NCI-H522 = assay: Growth inhibition of human NCI-H522 cells at 10 uM after 48 hrs by sulforhodamine B assay
Hs-578T = assay: Growth inhibition of human Hs 578T cells at 10 uM after 48 hrs by sulforhodamine B assay
786-0 = assay: Growth inhibition of human 786-0 cells at 10 uM after 48 hrs by sulforhodamine B assay
TK-10 = assay: Growth inhibition of human TK10 cells at 10 uM after 48 hrs by sulforhodamine B assay
SK-MEL-2 = assay: Growth inhibition of human SK-MEL-2 cells at 10 uM after 48 hrs by sulforhodamine B assay
MCF7 = assay: Growth inhibition of human MCF7 cells at 10 uM after 48 hrs by sulforhodamine B assay
SF-295 = assay: Growth inhibition of human SF295 cells at 10 uM after 48 hrs by sulforhodamine B assay
K562 = assay: Growth inhibition of human K562 cells at 10 uM after 48 hrs by sulforhodamine B assay
NCI-H322M = assay: Growth inhibition of human NCI-H322M cells at 10 uM after 48 hrs by sulforhodamine B assay
UO-31 = assay: Growth inhibition of human UO31 cells at 10 uM after 48 hrs by sulforhodamine B assay
OVCAR-3 = assay: Growth inhibition of human OVCAR3 cells at 10 uM after 48 hrs by sulforhodamine B assay
EKVX = assay: Growth inhibition of human EKVX cells at 10 uM after 48 hrs by sulforhodamine B assay
HT-29 = assay: Growth inhibition of human HT-29 cells at 10 uM after 48 hrs by sulforhodamine B assay
HL-60(TB) = assay: Growth inhibition of human HL-60(TB) cells at 10 uM after 48 hrs by sulforhodamine B assay
KM12 = assay: Growth inhibition of human KM12 cells at 10 uM after 48 hrs by sulforhodamine B assay
LOX IMVI = assay: Growth inhibition of human LOXIMVI cells at 10 uM after 48 hrs by sulforhodamine B assay
SK-MEL-28 = assay: Growth inhibition of human SK-MEL-28 cells at 10 uM after 48 hrs by sulforhodamine B assay
ACHN = assay: Growth inhibition of human ACHN cells at 10 uM after 48 hrs by sulforhodamine B assay
U-251 = assay: Growth inhibition of human U251 cells at 10 uM after 48 hrs by sulforhodamine B assay
A549 = assay: Growth inhibition of human A549/ATCC cells at 10 uM after 48 hrs by sulforhodamine B assay
HCT-116 = assay: Growth inhibition of human HCT116 cells at 10 uM after 48 hrs by sulforhodamine B assay
NCI-H460 = assay: Growth inhibition of human NCI-H460 cells at 10 uM after 48 hrs by sulforhodamine B assay
NCI/ADR-RES = assay: Growth inhibition of human NCI-ADR-RES cells at 10 uM after 48 hrs by sulforhodamine B assay
SK-MEL-5 = assay: Growth inhibition of human SK-MEL-5 cells at 10 uM after 48 hrs by sulforhodamine B assay
COLO 205 = assay: Growth inhibition of human COLO205 cells at 10 uM after 48 hrs by sulforhodamine B assay
Malme-3M = assay: Growth inhibition of human MALME-3M cells at 10 uM after 48 hrs by sulforhodamine B assay
HOP-92 = assay: Growth inhibition of human HOP92 cells at 10 uM after 48 hrs by sulforhodamine B assay
DU-145 = assay: Growth inhibition of human DU145 cells at 10 uM after 48 hrs by sulforhodamine B assay
RXF 393 = assay: Growth inhibition of human RXF393 cells at 10 uM after 48 hrs by sulforhodamine B assay
NCI-H23 = assay: Growth inhibition of human NCI-H23 cells at 10 uM after 48 hrs by sulforhodamine B assay
OVCAR-4 = assay: Growth inhibition of human OVCAR4 cells at 10 uM after 48 hrs by sulforhodamine B assay

Measured: growth inhibition (GI)

O=C1/C(=C\c2cccn2C(=O)c2ccc(Cl)cc2)c2ccccc2N1c1c(Cl)cccc1Cl
inactive: all assays above
